Test system: K12877-001-R-J1-PDC complex spheroid viability
Experiment: Anticancer human tumor K12877-001-R-J1-PDC patient-derived lung adenocarcinoma cell line growth inhibition [RAS]
Details: for IC50: curve of first compound; for viability, T/C: stronger effect = lower value
Method in brief: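 Tumour cells grown as complex spheroids with HUVEC endothelial cells and mesenchymal stem cells, treated with RAS pathway inhibitor combinations. Each agent spans half-log steps from near clinical Cmax, or 10 microM where Cmax is unknown.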

[1] = second compound 0.00316 µM, first compound 0.0316 µM
[2] = second compound 0.00316 µM, first compound 0.1 µM
[3] = second compound 0.00316 µM, first compound 0.316 µM
[4] = second compound 0.00316 µM, first compound 1 µM
[5] = second compound 0.00316 µM, first compound 3.16 µM
[6] = second compound 0.00316 µM, first compound 10 µM
[7] = second compound 0.01 µM, first compound 0.0316 µM
[8] = second compound 0.01 µM, first compound 0.1 µM
[9] = second compound 0.01 µM, first compound 0.316 µM
[10] = second compound 0.01 µM, first compound 1 µM
[11] = second compound 0.01 µM, first compound 3.16 µM
[12] = second compound 0.01 µM, first compound 10 µM
[13] = second compound 0.0316 µM, first compound 0.0316 µM
[14] = second compound 0.0316 µM, first compound 0.1 µM
[15] = second compound 0.0316 µM, first compound 0.316 µM
[16] = second compound 0.0316 µM, first compound 1 µM
[17] = second compound 0.0316 µM, first compound 3.16 µM
[18] = second compound 0.0316 µM, first compound 10 µM
[19] = second compound 0.1 µM, first compound 0.0316 µM
[20] = second compound 0.1 µM, first compound 0.1 µM
[21] = second compound 0.1 µM, first compound 0.316 µM
[22] = second compound 0.1 µM, first compound 1 µM
[23] = second compound 0.1 µM, first compound 3.16 µM
[24] = second compound 0.1 µM, first compound 10 µM
[25] = second compound 0.316 µM, first compound 0.0316 µM
[26] = second compound 0.316 µM, first compound 0.1 µM
[27] = second compound 0.316 µM, first compound 0.316 µM
[28] = second compound 0.316 µM, first compound 1 µM
[29] = second compound 0.316 µM, first compound 3.16 µM
[30] = second compound 0.316 µM, first compound 10 µM
[31] = second compound 1 µM, first compound 0.0316 µM
[32] = second compound 1 µM, first compound 0.1 µM
[33] = second compound 1 µM, first compound 0.316 µM
[34] = second compound 1 µM, first compound 1 µM
[35] = second compound 1 µM, first compound 3.16 µM
[36] = second compound 1 µM, first compound 10 µM
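Further: spheroids exposed to agents for one week before readout.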

Structure (SMILES): CC1(O)CCCC1n1c(=O)c(C(F)F)cc2cnc(NC3CCN(S(C)(=O)=O)CC3)nc21 (stereo not given) + C=CC(=O)N1CCN(c2nc(OCC3CCCN3C)nc3c(F)c(-c4nc(N)cc(C)c4C(F)(F)F)c(Cl)cc23)C(C)C1
- IC50 (second compound 0.00316 µM): 4.03 µM
- IC50 (second compound 0.01 µM): 1.19 µM
- IC50 (second compound 0.0316 µM): 1.64 µM
- IC50 (second compound 0.1 µM): 1.29 µM
- IC50 (second compound 0.316 µM): 0.71 µM
- IC50 (second compound 1 µM): 0.745 µM
- viability, T/C [1]: 105%
- viability, T/C [2]: 79.9%
- viability, T/C [3]: 68.2%
- viability, T/C [4]: 64%
- viability, T/C [5]: 71.9%
- viability, T/C [6]: 2.13%
- viability, T/C [7]: 96.1%
- viability, T/C [8]: 75.3%
- viability, T/C [9]: 49.5%
- viability, T/C [10]: 68.7%
- viability, T/C [11]: 34.4%
- viability, T/C [12]: 2.51%
- viability, T/C [13]: 88.1%
- viability, T/C [14]: 84.9%
- viability, T/C [15]: 56.4%
- viability, T/C [16]: 63.1%
- viability, T/C [17]: 43.9%
- viability, T/C [18]: 2.83%
- viability, T/C [19]: 94.5%
- viability, T/C [20]: 78.7%
- viability, T/C [21]: 59.2%
- viability, T/C [22]: 53.1%
- viability, T/C [23]: 48.4%
- viability, T/C [24]: 2.13%
- viability, T/C [25]: 102%
- viability, T/C [26]: 71.1%
- viability, T/C [27]: 58.7%
- viability, T/C [28]: 45.3%
- viability, T/C [29]: 41.2%
- viability, T/C [30]: 2.43%
- viability, T/C [31]: 95%
- viability, T/C [32]: 80.7%
- viability, T/C [33]: 43.7%
- viability, T/C [34]: 60.7%
- viability, T/C [35]: 42.2%
- viability, T/C [36]: 2.22%

Structure (SMILES): CCC(CC)c1cc(NC2CCC(N)C2)n2nccc2n1 (stereo not given) + C=CC(=O)N1CCN(c2nc(OCC3CCCN3C)nc3c(F)c(-c4nc(N)cc(C)c4C(F)(F)F)c(Cl)cc23)C(C)C1
- IC50 (second compound 0.00316 µM): 1.69 µM
- IC50 (second compound 0.01 µM): 1.43 µM
- IC50 (second compound 0.0316 µM): 1.58 µM
- IC50 (second compound 0.1 µM): 1.4 µM
- IC50 (second compound 0.316 µM): 1.48 µM
- IC50 (second compound 1 µM): 1.44 µM
- viability, T/C [1]: 97%
- viability, T/C [2]: 94.7%
- viability, T/C [3]: 98%
- viability, T/C [4]: 89.6%
- viability, T/C [5]: 2.45%
- viability, T/C [6]: 0.94%
- viability, T/C [7]: 91.2%
- viability, T/C [8]: 99.4%
- viability, T/C [9]: 93.2%
- viability, T/C [10]: 71.3%
- viability, T/C [11]: 2.11%
- viability, T/C [12]: 0.91%
- viability, T/C [13]: 99.3%
- viability, T/C [14]: 95.7%
- viability, T/C [15]: 86.2%
- viability, T/C [16]: 81.5%
- viability, T/C [17]: 2.25%
- viability, T/C [18]: 1.53%
- viability, T/C [19]: 85.2%
- viability, T/C [20]: 78.3%
- viability, T/C [21]: 83.4%
- viability, T/C [22]: 70%
- viability, T/C [23]: 1.91%
- viability, T/C [24]: 0.93%
- viability, T/C [25]: 88.3%
- viability, T/C [26]: 91.9%
- viability, T/C [27]: 86.3%
- viability, T/C [28]: 74.7%
- viability, T/C [29]: 2.48%
- viability, T/C [30]: 0.97%
- viability, T/C [31]: 86.2%
- viability, T/C [32]: 80.6%
- viability, T/C [33]: 94.8%
- viability, T/C [34]: 72.5%
- viability, T/C [35]: 1.96%
- viability, T/C [36]: 1.06%

Structure (SMILES): Cc1nc(N2CCC3(CC2)COC(C)C3N)c(CO)nc1Sc1ccnc(N)c1Cl (stereo not given) + C=CC(=O)N1CCN(c2nc(OCC3CCCN3C)nc3c(F)c(-c4nc(N)cc(C)c4C(F)(F)F)c(Cl)cc23)C(C)C1
- IC50 (second compound 0.00316 µM): > 10 µM
- IC50 (second compound 0.01 µM): > 10 µM
- IC50 (second compound 0.0316 µM): > 10 µM
- IC50 (second compound 0.1 µM): > 10 µM
- IC50 (second compound 0.316 µM): > 10 µM
- IC50 (second compound 1 µM): > 10 µM
- viability, T/C [1]: 111%
- viability, T/C [2]: 98.5%
- viability, T/C [3]: 90.6%
- viability, T/C [4]: 86.9%
- viability, T/C [5]: 92.4%
- viability, T/C [6]: 93%
- viability, T/C [7]: 94.8%
- viability, T/C [8]: 79.3%
- viability, T/C [9]: 84.4%
- viability, T/C [10]: 93.3%
- viability, T/C [11]: 83.9%
- viability, T/C [12]: 68.5%
- viability, T/C [13]: 91.2%
- viability, T/C [14]: 92.9%
- viability, T/C [15]: 88.3%
- viability, T/C [16]: 70%
- viability, T/C [17]: 80.7%
- viability, T/C [18]: 65.8%
- viability, T/C [19]: 99.7%
- viability, T/C [20]: 87.6%
- viability, T/C [21]: 85.7%
- viability, T/C [22]: 86.9%
- viability, T/C [23]: 79.2%
- viability, T/C [24]: 60.2%
- viability, T/C [25]: 84.9%
- viability, T/C [26]: 75.9%
- viability, T/C [27]: 80.5%
- viability, T/C [28]: 93.9%
- viability, T/C [29]: 79.4%
- viability, T/C [30]: 61.4%
- viability, T/C [31]: 87.3%
- viability, T/C [32]: 90.8%
- viability, T/C [33]: 98.8%
- viability, T/C [34]: 92.6%
- viability, T/C [35]: 78.8%
- viability, T/C [36]: 62.2%

Structure (SMILES): NC1c2ccccc2OC12CCN(c1cnc3c(N4CCCc5ncccc54)n[nH]c3n1)CC2 (stereo not given) + C=CC(=O)N1CCN(c2nc(OCC3CCCN3C)nc3c(F)c(-c4nc(N)cc(C)c4C(F)(F)F)c(Cl)cc23)C(C)C1
- IC50 (second compound 0.00316 µM): > 10 µM
- IC50 (second compound 0.01 µM): 8.9 µM
- IC50 (second compound 0.0316 µM): 6.88 µM
- IC50 (second compound 0.1 µM): 5.24 µM
- IC50 (second compound 0.316 µM): 5.89 µM
- IC50 (second compound 1 µM): 9.97 µM
- viability, T/C [1]: 82.2%
- viability, T/C [2]: 89.4%
- viability, T/C [3]: 83.9%
- viability, T/C [4]: 84.5%
- viability, T/C [5]: 63.4%
- viability, T/C [6]: 52.7%
- viability, T/C [7]: 82.7%
- viability, T/C [8]: 92.4%
- viability, T/C [9]: 84.6%
- viability, T/C [10]: 78.1%
- viability, T/C [11]: 65.5%
- viability, T/C [12]: 48.2%
- viability, T/C [13]: 89.8%
- viability, T/C [14]: 79.6%
- viability, T/C [15]: 75.4%
- viability, T/C [16]: 69.3%
- viability, T/C [17]: 57.5%
- viability, T/C [18]: 45.9%
- viability, T/C [19]: 97.3%
- viability, T/C [20]: 79.3%
- viability, T/C [21]: 67.4%
- viability, T/C [22]: 64.5%
- viability, T/C [23]: 54.7%
- viability, T/C [24]: 44.4%
- viability, T/C [25]: 81.5%
- viability, T/C [26]: 73.5%
- viability, T/C [27]: 70.3%
- viability, T/C [28]: 63.4%
- viability, T/C [29]: 48.9%
- viability, T/C [30]: 48.9%
- viability, T/C [31]: 81.9%
- viability, T/C [32]: 95.9%
- viability, T/C [33]: 66.7%
- viability, T/C [34]: 76.7%
- viability, T/C [35]: 55.5%
- viability, T/C [36]: 50.7%

Structure (SMILES): Nc1ccn(C2OC(CO)C(O)C2(F)F)c(=O)n1 (stereo not given) + C=CC(=O)N1CCN(c2nc(OCC3CCCN3C)nc3c(F)c(-c4nc(N)cc(C)c4C(F)(F)F)c(Cl)cc23)C(C)C1
- IC50 (second compound 0.00316 µM): 0.0179 µM
- IC50 (second compound 0.01 µM): 0.0169 µM
- IC50 (second compound 0.0316 µM): 0.0161 µM
- IC50 (second compound 0.1 µM): 0.0166 µM
- IC50 (second compound 0.316 µM): 0.0144 µM
- IC50 (second compound 1 µM): 0.0131 µM
- viability, T/C (second compound 0.00316 µM, first compound 0.00316 µM): 95.9%
- viability, T/C (second compound 0.00316 µM, first compound 0.01 µM): 94.4%
- viability, T/C [1]: 6.55%
- viability, T/C [2]: 4.24%
- viability, T/C [3]: 4.05%
- viability, T/C [4]: 3.99%
- viability, T/C (second compound 0.01 µM, first compound 0.00316 µM): 93.7%
- viability, T/C (second compound 0.01 µM, first compound 0.01 µM): 83%
- viability, T/C [7]: 10.8%
- viability, T/C [8]: 4.22%
- viability, T/C [9]: 4.2%
- viability, T/C [10]: 4.01%
- viability, T/C (second compound 0.0316 µM, first compound 0.00316 µM): 83.5%
- viability, T/C (second compound 0.0316 µM, first compound 0.01 µM): 81.2%
- viability, T/C [13]: 6.08%
- viability, T/C [14]: 3.45%
- viability, T/C [15]: 5.01%
- viability, T/C [16]: 4.23%
- viability, T/C (second compound 0.1 µM, first compound 0.00316 µM): 87.8%
- viability, T/C (second compound 0.1 µM, first compound 0.01 µM): 84.7%
- viability, T/C [19]: 6.15%
- viability, T/C [20]: 4.69%
- viability, T/C [21]: 4.71%
- viability, T/C [22]: 3.18%
- viability, T/C (second compound 0.316 µM, first compound 0.00316 µM): 84.9%
- viability, T/C (second compound 0.316 µM, first compound 0.01 µM): 70.4%
- viability, T/C [25]: 6.26%
- viability, T/C [26]: 4.95%
- viability, T/C [27]: 4.16%
- viability, T/C [28]: 4.03%
- viability, T/C (second compound 1 µM, first compound 0.00316 µM): 83.5%
- viability, T/C (second compound 1 µM, first compound 0.01 µM): 63.4%
- viability, T/C [31]: 6.51%
- viability, T/C [32]: 3.92%
- viability, T/C [33]: 4.72%
- viability, T/C [34]: 5.35%
